Blank lines part the entries; values can stand above or below the substance they belong to.
Experiments:
[1] = target: T1, recombinant human factor VIIa (Homo sapiens, UniProt P08709); assay: Inhibition of amidolytic activity of factor VIIa; assay type: biochemical; conditions: 1.0 μM aprotinin analogue
T1 construct: recombinant human factor VIIa was from NOVO (Bagsvaerd, Denmark)
T1 sequence (P08709 213-466 limits assumed): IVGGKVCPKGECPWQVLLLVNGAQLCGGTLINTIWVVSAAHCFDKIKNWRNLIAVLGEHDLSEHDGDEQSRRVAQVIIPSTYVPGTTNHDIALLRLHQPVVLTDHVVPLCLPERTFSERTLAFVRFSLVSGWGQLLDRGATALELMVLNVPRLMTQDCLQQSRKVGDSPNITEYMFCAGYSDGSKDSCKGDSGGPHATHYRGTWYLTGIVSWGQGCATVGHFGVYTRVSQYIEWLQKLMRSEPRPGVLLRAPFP
T1 sequence (P08709 61-212 partner limits assumed): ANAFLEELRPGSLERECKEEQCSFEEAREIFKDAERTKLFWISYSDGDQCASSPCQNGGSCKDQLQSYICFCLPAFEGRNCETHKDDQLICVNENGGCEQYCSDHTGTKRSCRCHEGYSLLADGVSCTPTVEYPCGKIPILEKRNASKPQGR
Procedure: (§1) The concentration was calculated using E280 nm=8.3 and Mr =6500. Human plasma kallikrein was obtained from Sigma (St. Louis, Mo.), bovine factor Xa was purified according to (H. Nobukazu et al. J.Biochem. 97 (1985)1347-1355), human factor IIa (thrombin) was a gift from Dr. W. Lawson (New York State Dept. of Health, Albany, N.Y.), recombinant human factor VIIa was from NOVO (Bagsvaerd, Denmark) and recombinant human protein Ca was from ZymoGenetics, Inc. (Seattle, Wash.). Substrate S 2302 (H-D-Pro-Phe-Arg-p-nitroanilide) substrate S2238 (H-D-Phe-Pip-Arg-p-nitroanilide) and substrate S2366 (Glu-Pro-Arg-p-nitroanilide) were from Kabi (Stockholm, Sweden). Substrate FXa-1 (methoxycarbonyl DCH-Gly-Arg-p-nitroanilide) was from NycoMed (Oslo, Norway). The experiments were performed in 100 mM NaCl, 50 mM Tris-HCl 0.01% Tween80, pH 7.4 at 25° C.
(§2) Substrate S 2302 (0.6 mM) was added to a final volume of 300 μand the rate of nitroaniline generation was measured at 405 nm by means of a Micro ELISA® Autoreader MR 580 from Dynatech Laboratories. […]
(§3) The analogues were also tested for inhibition of the amidolytic activity of the serine proteases: bovine factor Xa, human factor IIa, human recombinant factor VIIa and human recombinant protein Ca. […] Finally the analogues were analysed for an effect on the coagulation factors of human plasma by means of two clotting tests. […]

Human plasma kallikrein = target: T2, Human plasma kallikrein (Homo sapiens, UniProt P03952); assay: Inhibition of amidolytic activity of human plasma kallikrein (substrate S2302); assay type: biochemical
T2 construct: purchased Sigma (St. Louis, Mo.)
T2 sequence (P03952 391-638 limits assumed): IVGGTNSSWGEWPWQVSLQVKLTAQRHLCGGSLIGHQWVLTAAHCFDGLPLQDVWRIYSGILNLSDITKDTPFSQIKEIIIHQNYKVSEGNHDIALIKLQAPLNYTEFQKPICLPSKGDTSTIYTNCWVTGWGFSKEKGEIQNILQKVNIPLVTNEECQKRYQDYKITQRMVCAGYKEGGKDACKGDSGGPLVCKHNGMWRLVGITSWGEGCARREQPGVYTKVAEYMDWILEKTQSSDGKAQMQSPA
T2 sequence (P03952 20-390 partner limits assumed): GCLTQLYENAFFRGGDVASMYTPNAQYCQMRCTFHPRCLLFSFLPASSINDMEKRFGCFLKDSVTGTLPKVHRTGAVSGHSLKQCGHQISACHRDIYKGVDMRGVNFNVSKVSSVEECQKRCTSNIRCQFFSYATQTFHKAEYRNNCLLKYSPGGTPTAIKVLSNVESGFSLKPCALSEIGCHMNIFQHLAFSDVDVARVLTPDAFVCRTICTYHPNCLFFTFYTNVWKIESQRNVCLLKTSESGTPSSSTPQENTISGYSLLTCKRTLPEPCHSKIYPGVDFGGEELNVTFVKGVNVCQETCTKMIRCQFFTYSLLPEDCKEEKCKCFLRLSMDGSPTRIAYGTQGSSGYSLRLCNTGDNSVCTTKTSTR
Procedure: as §1
Substrate S 2302 (0.6 mM) was added to a final volume of 300 μand the rate of nitroaniline generation was measured at 405 nm by means of a Micro ELISA® Autoreader MR 580 from Dynatech Laboratories. The rate is proportional to the concentration of free enzyme.

[2] = system: coagulation factors of human plasma; assay: Clotting test, prothrombin time (PTT); assay type: biochemical; conditions: 1.0 μM aprotinin analogue
Procedure: (§4) The analogues were also tested for inhibition of the amidolytic activity of the serine proteases: bovine factor Xa, human factor IIa, human recombinant factor VIIa and human recombinant protein Ca. The experiments were performed essentially as described for plasma kallikrein only appropriate substrates were used. Finally the analogues were analysed for an effect on the coagulation factors of human plasma by means of two clotting tests. These tests, the prothrombin time (PTT) and the activated thromboplastin time (APTT) were performed with General Diagnostics® reagents from Organon (Durham, N.C.) according to the directions given by the manufacturer.

[3] = system: coagulation factors of human plasma; assay: Clotting test, activated thromboplastin time (APTT); assay type: biochemical; conditions: 1.0 μM aprotinin analogue
Procedure: as §4

[4] = target: T3, human factor IIa (thrombin) (Homo sapiens, UniProt P00734); assay: Inhibition of amidolytic activity of factor IIa (substrate S2238); assay type: biochemical; conditions: 1.0 μM aprotinin analogue
T3 construct: human factor IIa (thrombin) was a gift from Dr. W. Lawson; gift from Dr. W. Lawson (New York State Dept. of Health, Albany, N.Y.)
Procedure: as §1, §2, §3

bovine factor Xa = target: T4, bovine factor Xa (Bos taurus, UniProt P00743); assay: Inhibition of amidolytic activity of factor Xa (substrate FXa-1); assay type: biochemical; conditions: 1.0 μM aprotinin analogue; substrate FXa1
T4 construct: bovine factor Xa was purified according to (H. Nobukazu et al. J.Biochem. 97 (1985)1347-1355); from tissue; bovine plasma inferred
T4 sequence (P00743 234-492 limits assumed): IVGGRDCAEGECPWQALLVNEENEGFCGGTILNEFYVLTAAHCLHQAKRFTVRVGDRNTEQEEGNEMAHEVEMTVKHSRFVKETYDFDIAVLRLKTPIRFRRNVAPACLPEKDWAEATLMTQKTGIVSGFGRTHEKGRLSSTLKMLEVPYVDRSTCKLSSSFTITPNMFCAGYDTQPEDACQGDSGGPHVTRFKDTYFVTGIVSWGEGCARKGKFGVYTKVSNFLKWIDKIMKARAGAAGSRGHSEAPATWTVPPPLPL
T4 sequence (P00743 41-180 partner limits assumed): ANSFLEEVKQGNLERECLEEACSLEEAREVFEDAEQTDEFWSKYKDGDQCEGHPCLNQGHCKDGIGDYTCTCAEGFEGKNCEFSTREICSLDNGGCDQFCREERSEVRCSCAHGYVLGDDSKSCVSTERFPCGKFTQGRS
Procedure: as §1, §2, §3

[5] = target: T5, recombinant human protein Ca (Homo sapiens, UniProt P04070); assay: Inhibition of amidolytic activity of protein Ca (substrate S2366); assay type: biochemical; conditions: graphical Dixon method, read-out: Ki, amidolytic activity, Prot. Ca
T5 construct: purchased ZymoGenetics, Inc. (Seattle, Wash.)
T5 sequence (P04070 212-461 limits assumed): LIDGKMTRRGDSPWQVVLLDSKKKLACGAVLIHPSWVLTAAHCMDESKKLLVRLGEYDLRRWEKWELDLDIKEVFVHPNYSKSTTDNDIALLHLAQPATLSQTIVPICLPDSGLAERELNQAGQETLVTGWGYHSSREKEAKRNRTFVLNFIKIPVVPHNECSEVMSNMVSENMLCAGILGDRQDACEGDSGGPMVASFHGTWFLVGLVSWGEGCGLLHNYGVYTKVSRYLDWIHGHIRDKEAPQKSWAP
T5 sequence (P04070 43-197 partner limits assumed): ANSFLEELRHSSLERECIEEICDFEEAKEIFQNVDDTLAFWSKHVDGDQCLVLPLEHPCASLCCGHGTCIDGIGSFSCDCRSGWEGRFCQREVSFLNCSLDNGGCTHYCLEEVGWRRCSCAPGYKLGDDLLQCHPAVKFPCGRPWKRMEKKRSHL
Procedure: as §1, §2, §3

granulocyte elastase = target: T6, granulocyte elastase (Homo sapiens, UniProt P08246); conditions: known analogues, as claimed in prior art; cited from earlier work
T6 sequence (P08246 30-267): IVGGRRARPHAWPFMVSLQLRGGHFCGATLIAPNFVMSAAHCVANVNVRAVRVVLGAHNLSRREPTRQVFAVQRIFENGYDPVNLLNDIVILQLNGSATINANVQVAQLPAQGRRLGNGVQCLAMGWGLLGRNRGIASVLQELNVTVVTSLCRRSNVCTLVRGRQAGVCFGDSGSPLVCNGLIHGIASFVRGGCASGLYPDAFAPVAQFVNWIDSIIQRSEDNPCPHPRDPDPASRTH

collagenase = conditions: known analogues, as claimed in prior art; cited from earlier work
kallikrein = conditions: known analogues, as claimed in prior art; cited from earlier work
trypsin = target: T7, trypsin (Bos taurus, UniProt P00760); conditions: known analogues, as claimed in prior art; cited from earlier work
T7 construct: gene PRSS1
T7 sequence (P00760 24-246): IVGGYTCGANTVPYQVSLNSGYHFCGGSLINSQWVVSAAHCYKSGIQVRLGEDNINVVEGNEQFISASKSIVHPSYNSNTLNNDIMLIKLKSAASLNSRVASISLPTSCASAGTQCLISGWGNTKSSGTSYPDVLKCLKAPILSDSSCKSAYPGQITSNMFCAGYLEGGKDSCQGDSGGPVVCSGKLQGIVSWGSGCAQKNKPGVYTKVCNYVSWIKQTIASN

- Amidolytic activity of FVIIa, inhibition [1]: -
- Ki (Human plasma kallikrein; graphical Dixon method, substrate S2302, pH 7.4, 25° C.): 180 nM
- Inhibition of plasma kallikrein (in words, FIGS. 5A and 5B) (Human plasma kallikrein; kallikrein 3 nM, aprotinin 0-20 nM, 30 minutes): moderate inhibition
- Amidolytic activity of FIIa, inhibition [4]: -
- Amidolytic activity of FXa, inhibition (bovine factor Xa): -
- Ki [5]: 400 nM
Substance: Aprotinin (bovine pancreatic trypsin inhibitor, BPTI) [Native Aprotinin]
- Clot assays PTT [2]: -
- Clot assays APTT [3]: -

Substance: aprotinin(15 Val)
- Effect on elastase (in words) (granulocyte elastase): relatively high selectivity for granulocyte elastase
- Inhibition effect on collagenase (in words) (collagenase): inhibition effect on collagenase

Substance: aprotinin(15Ala)
- Effect on elastase (in words) (granulocyte elastase): only a weak inhibitory effect on elastase

Substance: aprotinin(15Gly)
- Inhibition of kallikrein (in words) (kallikrein): surprisingly inhibits kallikrein
- Antitrypsin activity (in words) (trypsin): outstanding antitrypsin activity

Reference: patent publication US5373090A, “Aprotinin analogues and a process for the production thereof” (Novo Nordisk A/S, priority 1988, dated 1994)
